We go through 59 sequences from the OligoGym collection.

Among the targets are IL15; SUMO1; IKBKB.
Conditions in all cases: ASO

These antisense oligonucleotides have a phosphorothioate backbone; sugars and methylation of C are not fully specified. Where only a bound is given, the exact number is not on record here.
Further: test concentration or dose not given here.

On to AAAAGAAAGGGAGGGAAT, for which the remaining target (mRNA or protein) (fraction of control) with IL15 was ≥ 1.

Take AAACAATAATGAATAATG: in the data set with SUMO1, the remaining target (mRNA or protein) (fraction of control) is ≥ 1.

As for AAATCCTTCCCCTTCCCG, the remaining target (mRNA or protein) (fraction of control) with SUMO1 is ≥ 1.

AACTTCCGCTACGCCTCG: in the data set with SUMO1, the remaining target (mRNA or protein) (fraction of control) is ≥ 1.

Take AAGAAGTGTTGATGAACA: the remaining target (mRNA or protein) (fraction of control) with IL15 came out at 0.83.

In the case of AATGTCACTCAGCAAGGT, the remaining target (mRNA or protein) (fraction of control) with IKBKB was found to be 0.25.

For AATTTCCAGTATTTATGC, the remaining target (mRNA or protein) (fraction of control) with SUMO1 came out at 0.45.

Consider ACAATGAAAACAAACAAT, for which the remaining target (mRNA or protein) (fraction of control) with SUMO1 was ≥ 1.

As for ACACAAGTAGCACTGGAT, in the data set with IL15, the remaining target (mRNA or protein) (fraction of control) stood at 0.43.

ACACCTACCTTTTAATAA: in the data set with IL15, the remaining target (mRNA or protein) (fraction of control) is ≥ 1.

With ACATGATGACGGTGGCTT, in the data set with SUMO1, the remaining target (mRNA or protein) (fraction of control) is ≥ 1.

As to ACCACATTACAAAAGAAC, the remaining target (mRNA or protein) (fraction of control) with SUMO1 was ≥ 1.

For ACTCAAAGGCCAGGGTGC, in the data set with IKBKB, the remaining target (mRNA or protein) (fraction of control) was 0.59.

Regarding ACTCTAGGCCCATAGCAA, the remaining target (mRNA or protein) (fraction of control) with IL15 stood at 0.58.

Consider ACTGCTATCCTGTCCAAT, for which the remaining target (mRNA or protein) (fraction of control) with SUMO1 amounted to 0.67.

ACTGGGTATATTAGCTGC had a remaining target (mRNA or protein) (fraction of control) with IL15 of 0.58.

ACTGGTTCAGGTACTTCC came in with a remaining target (mRNA or protein) (fraction of control) with IKBKB of 0.88.

Regarding ACTTCCATCTCCCACTGA, the remaining target (mRNA or protein) (fraction of control) with SUMO1 amounted to 0.47.

ACTTCTGCTGCTCCAGTA showed a remaining target (mRNA or protein) (fraction of control) with IKBKB of 0.58.

Regarding AGACATGAATGCCAGCTT, the remaining target (mRNA or protein) (fraction of control) with IL15 came out at 0.26.

With AGATGTGTTGTCATTTTC, the remaining target (mRNA or protein) (fraction of control) in the data set with SUMO1 is ≥ 1.

As for AGCAGTGTTCTGTTGTAT, the remaining target (mRNA or protein) (fraction of control) in the data set with SUMO1 is ≥ 1.

For AGCTGGCTATGGCAAGGG, in the data set with IL15, the remaining target (mRNA or protein) (fraction of control) stood at 0.35.

With AGGATTGAGGGAAAAGAA, the remaining target (mRNA or protein) (fraction of control) with SUMO1 was ≥ 1.

With AGGCATTAGTAGAGTAAA, in the data set with IL15, the remaining target (mRNA or protein) (fraction of control) is 0.92.

The sequence AGGGTGCAGAGGTTATGT yielded a remaining target (mRNA or protein) (fraction of control) in the data set with IKBKB of 0.48.

Turning to AGTGAAATAACTTGTAAC, the remaining target (mRNA or protein) (fraction of control) with IL15 is ≥ 1.

Turning to AGTTTATCTGATGTGATC, the remaining target (mRNA or protein) (fraction of control) with IKBKB was 0.8.

As for ATAATGAATAATGAGCAC, the remaining target (mRNA or protein) (fraction of control) with SUMO1 was ≥ 1.

The sequence ATAATGGTATGGAGGAAG displayed a remaining target (mRNA or protein) (fraction of control) with IL15 of 0.6.

In the case of ATATTACTCAATGACATT, the remaining target (mRNA or protein) (fraction of control) with IL15 is ≥ 1.

As for ATCCTAGGTCAATAATTT, in the data set with IKBKB, the remaining target (mRNA or protein) (fraction of control) turned out to be 0.97.

ATGATTCTTTGAGTTTCT had a remaining target (mRNA or protein) (fraction of control) in the data set with SUMO1 of 0.59.

In the data set with IL15, ATGCATCACCTTTAATCT yielded a remaining target (mRNA or protein) (fraction of control) of 0.65.

In the case of ATTAGAAGACAAACTGTT, the remaining target (mRNA or protein) (fraction of control) with IL15 was ≥ 1.

In the data set with SUMO1, ATTCACCTTCCTTCTTAT gave a remaining target (mRNA or protein) (fraction of control) of 0.55.

On to ATTCTCTGACCCTCAAAG, for which the remaining target (mRNA or protein) (fraction of control) with SUMO1 is ≥ 1.

In the data set with IL15, ATTTAGGTAAGCTACTCT had a remaining target (mRNA or protein) (fraction of control) of 0.75.

Turning to CACAGGGTAGGTGTGGAT, the remaining target (mRNA or protein) (fraction of control) with IKBKB was found to be 0.6.

Take CAGATGTTTCAAAGAGAT: the remaining target (mRNA or protein) (fraction of control) in the data set with SUMO1 is ≥ 1.

In turn, CAGCTGTGCTCTTCTTCT had a remaining target (mRNA or protein) (fraction of control) with IKBKB of 0.75.

On to CAGTATGATTCTTTGAGT, for which the remaining target (mRNA or protein) (fraction of control) in the data set with SUMO1 came out at 0.53.

For CATAGCAAGTACATGACA, the remaining target (mRNA or protein) (fraction of control) with IL15 amounted to 0.46.

On to CCAATACCATGAAGGCAT, for which the remaining target (mRNA or protein) (fraction of control) in the data set with IL15 is 0.25.

CCACAGTTCAGTTCTCTG showed a remaining target (mRNA or protein) (fraction of control) in the data set with SUMO1 of 0.34.

For CCAGCTTCAGTTAGAAAA, the remaining target (mRNA or protein) (fraction of control) with IL15 is ≥ 1.

As for CCAGGAGTGAAGTAATCA, the remaining target (mRNA or protein) (fraction of control) with SUMO1 is ≥ 1.

In turn, CCATCCACGATGCCTCCT yielded a remaining target (mRNA or protein) (fraction of control) with IL15 of 0.5.

CCCCACATGTCTGCGTTG returned a remaining target (mRNA or protein) (fraction of control) in the data set with IKBKB of 0.12.

Regarding CCCCTTCCCGACAGCACA, the remaining target (mRNA or protein) (fraction of control) with SUMO1 stood at 0.92.

On to CCTCAAAGAGAAACCTGA, for which, in the data set with SUMO1, the remaining target (mRNA or protein) (fraction of control) was ≥ 1.

With CGTGAAACTCTGGTCTTG, in the data set with IKBKB, the remaining target (mRNA or protein) (fraction of control) was found to be 0.48.

With CTAGGGTAAAGTATGATC, the remaining target (mRNA or protein) (fraction of control) in the data set with IL15 is ≥ 1.

Sequence CTCAGCTGGAAGAAGGCG yielded a remaining target (mRNA or protein) (fraction of control) with IKBKB of 0.4.

CTCAGTTGAAGGTTTTGC: the remaining target (mRNA or protein) (fraction of control) in the data set with SUMO1 was ≥ 1.

For the sequence CTCGAAGCTCTGAATTGC, the remaining target (mRNA or protein) (fraction of control) with IKBKB turned out to be 0.48.

For CTGAACTGAGAGTCAGAT, the remaining target (mRNA or protein) (fraction of control) with IL15 was 0.27.

CTGAGTGGCAGGCTTATC gave a remaining target (mRNA or protein) (fraction of control) with IKBKB of 0.28.

For CTGGGATGCCCGTGTCCT, the remaining target (mRNA or protein) (fraction of control) with IKBKB was ≥ 1.
